SMILES strings stand for the structures. pIC50: −log10 of the molar value. Structures can show the parent of a compound that is named as a salt.

The subject of one assay is rat aorta. The assay is described as follows: In vitro activity in rat aorta stimulated by potassium ions. Format: cell-based, rat (male Wistar). The note with it: 1 h; rat aorta rings, KCl 80 mM stimulation, cumulative doses at 60 minutes intervals. As to the method:
Determination of the Vitro Activity in Rat Aorta Stimulated by Potassium Ions
This trial was carried out using isolated organs removed from male Wistar rats weighing 300 to 400 g, kept under a water diet 18 hours before sacrificing.
After quickly sacrificing the animal, the aorta (at the level of the arch of the aorta) is removed and dissected into 2 mm-long rings; the endothelium is removed mechanically. After an equilibration period of 1 hour in a physiological solution consisting of (mM): NaCl 112, KCl 5, KH2 PO4 1, MgSO4 1.2, CaCl2 2.5, NaHCO3 25 and glucose 11.5, the preparations are stimulated with a potassium-rich solution. The latter consists of (mM):NaCl 37, KCl 80, KH2 PO4 1, MgSO4 1.2, CaCl2 2.5, NaHCO3 25 and glucose 11.5. This solution has a pH of 7.4 at 37° C.
After 15 minutes of stabilization, the compounds to be tested are then added (sample volume 0.2 ml) at cumulative doses at 60 minutes intervals. From the relaxation values obtained, it is possible to construct a doseresponse curve, leading to the calculation of an IC50 value (expressed in M).

Assay [1] has as its system conscious dogs with renal hypertension. As to the kind of experiment: Study in conscious dogs with renal hypertension (oral, mean arterial pressure). Format: in vivo, dog (Mongol). Particulars: digestive route. An excerpt: Study in Conscious Dogs with Renal Hypertension
Mongol dogs weighing 20 to 25 kg are used. A Silastic® catheter, inserted under anesthesia at the level of the abdominal aorta, left in position permanently, enables the arterial pressure to be determined subsequently in the conscious animal.
Arterial hypertension is induced by a second operation, under anesthesia, consisting in constricting the left renal artery with a clip, decreasing the flow rate therein by approximately 70%, the left kidney is also covered with a latex capsule in order to restrict circulatory compensations; the contralateral kidney is left in position.
The systolic, diastolic and mean arterial pressures are determined with a Statham® P23 pressure sensor attached to the Silastic® catheter and connected to a Gould® "pressure-processor". The compounds are tested in animals which became hypertensive in the conscious state at least one week after the second operation. The arterial pressure is continuously recorded up to 7 hours after the treatment and then at 24 hours.
The compounds to be tested are administered by the digestive route through gastric tubing, in the form of a solution which may be aqueous, aqueous/alcoholic and the like, depending on the solubility of the products.
The doses administered are expressed in mg base per body weight kg.

The test system of assay [2] is conscious spontaneous hypertensive rats (SHR). The assay is described as follows: Short-term studies in conscious spontaneous hypertensive rats (oral, systolic arterial pressure). Format: in vivo, rat (SHR). The procedure: Short-term Studies in Conscious Spontaneous Hypertensive Rats (SHR)
Male spontaneous hypertensive rats weighing 270 to 320 g, aged 16 to 24 weeks, are anesthetized with ether. A polyethylene catheter is introduced into the femoral artery and moved forward to the level of the tail. The pressure in the femoral artery is recorded with a Statham® P23 sensor, on a Gould® 2400 recorder. The animals are treated at least one hour after the operation. The compounds are administered orally, in the dissolved form. The doses administered are expressed in mg/kg of base. The compounds of the invention were compared with amlodipine and with another 1,4-dihydropyridine derivative reference compound, nifedipine.

The test system is the same in assay [3]. As to the kind of experiment: Long-term studies in conscious spontaneous hypertensive rats (oral, single daily dose, systolic arterial pressure). Format: in vivo, rat (SHR). Particulars: 1 mg/kg/d; for Systolic arterial pressure Δ(mm Hg) 24 h after the last administration of the products, D1: day 1; for Systolic arterial pressure Δ(mm Hg) 24 h after the last administration of the products, D2: day 2; for Systolic arterial pressure Δ(mm Hg) 24 h after the last administration of the products, D3: day 3; for Systolic arterial pressure Δ(mm Hg) 24 h after the last administration of the products, D4: day 4; for Systolic arterial pressure Δ(mm Hg) 24 h after the last administration of the products, D7: day 7. The procedure:
Long-term Studies in Conscious Spontaneous Hypertensive rats (SHR) Male rats weighing 280 to 300 g, aged 16 weeks, are used in this study. The systolic arterial pressure is determined with a Rhema multichannel 8,000® apparatus, according to the indirect method, at the tail of the animal. The compounds to be tested are administered orally, in a single daily dose. Determinations of arterial pressure are carried out each day just before the treatment. Amlodipine was also studied under the same conditions.

With `CCOC(=O)C1=C(COCCOCCN)NC(C)=C(C(=O)OC)C1c1c(F)c(F)c(F)c(F)c1F` (racemic) [EXAMPLE 1, (4R,S)-2-{[2-(2-Aminoethoxy)ethoxy]methyl}-3-ethoxycarbonyl-5-methoxycarbonyl-6-methyl-4-pentafluorophenyl-1,4-dihydropyridine hemifumarate], the negative logarithm of the IC50 (pIC50) (commonly −log10 of the IC50, conventionally taken in molar units) with rat aorta was 7.60. In addition, in assay [1] (0.5 mg/kg), the “Mean arterial pressure after treatment, Δ mm Hg, 4 h” value is -21 mm Hg; the “Mean arterial pressure after treatment, Δ mm Hg, 7 h” value is given as -22 mm Hg; the “Mean arterial pressure after treatment, Δ mm Hg, 24 h” value is -15 mm Hg. Also, in assay [1] (1.0 mg/kg), the “Mean arterial pressure after treatment, Δ mm Hg, 4 h” value is on record as -45 mm Hg; the “Mean arterial pressure after treatment, Δ mm Hg, 7 h” value is -47 mm Hg; the “Mean arterial pressure after treatment, Δ mm Hg, 24 h” value is given as -46 mm Hg. Besides, in assay [2] (1 mg/kg), the “Systolic arterial pressure after treatment, Δ mm Hg, 4 h” value is listed as -44 mm Hg; the “Systolic arterial pressure after treatment, Δ mm Hg, 6 h” value is listed as -54 mm Hg; the “Systolic arterial pressure after treatment, Δ mm Hg, 24 h” value is on record as -47 mm Hg. Also, in assay [2] (3 mg/kg), the “Systolic arterial pressure after treatment, Δ mm Hg, 4 h” value is given as -79 mm Hg; the “Systolic arterial pressure after treatment, Δ mm Hg, 6 h” value was -78 mm Hg; the “Systolic arterial pressure after treatment, Δ mm Hg, 24 h” value is -71 mm Hg. In assay [3], the “Systolic arterial pressure Δ(mm Hg) 24 h after the last administration of the products, D1” value was -52 mm Hg; the “Systolic arterial pressure Δ(mm Hg) 24 h after the last administration of the products, D2” value is recorded as -51 mm Hg; the “Systolic arterial pressure Δ(mm Hg) 24 h after the last administration of the products, D3” value is -49 mm Hg; the “Systolic arterial pressure Δ(mm Hg) 24 h after the last administration of the products, D4” value is -44 mm Hg. Besides, the “Systolic arterial pressure Δ(mm Hg) 24 h after the last administration of the products, D7” value in assay [3] is on record as -46 mm Hg.

As for `CCOC(=O)C1=C(COCCOCCN)NC(C)=C(C(=O)OC)C1c1ccccc1Cl` (racemic) [EXAMPLE 5, (4R,S)-2-{[2-(2-Aminoethoxy)ethoxy]methyl}-4-(2-chlorophenyl)-3-ethoxycarbonyl-5-methoxycarbonyl-6-methyl-1,4-dihydropyridine fumarate], the pIC50 with rat aorta was 7.19. Moreover, in assay [1] (0.5 mg/kg), the “Mean arterial pressure after treatment, Δ mm Hg, 4 h” value is -32 mm Hg and the “Mean arterial pressure after treatment, Δ mm Hg, 7 h” value was -25 mm Hg. Moreover, in assay [1] (1.0 mg/kg), the “Mean arterial pressure after treatment, Δ mm Hg, 4 h” value is reported as -48 mm Hg; the “Mean arterial pressure after treatment, Δ mm Hg, 7 h” value was -39 mm Hg; the “Mean arterial pressure after treatment, Δ mm Hg, 24 h” value was -10 mm Hg. In assay [2] (3 mg/kg), the “Systolic arterial pressure after treatment, Δ mm Hg, 4 h” value was -49 mm Hg; the “Systolic arterial pressure after treatment, Δ mm Hg, 6 h” value is given as -49 mm Hg; the “Systolic arterial pressure after treatment, Δ mm Hg, 24 h” value is -22 mm Hg.

In the assay with rat aorta, `CCOC(=O)C1=C(COCCOCCN(C)Cc2ccccc2)NC(C)=C(C(=O)OC)C1c1ccccc1Cl` (racemic) [EXAMPLE 7, (4R,S)-2-[{2-[2-(N-Methyl-N-benzylamino)ethoxy]ethoxy}-methyl]-4-(2-chlorophenyl)-3-ethoxycarbonyl-5-methoxycarbonyl-6-methyl-1,4-dihydropyridine tartrate] had a pIC50 of 8.40. Also, in assay [1] (0.5 mg/kg), the “Mean arterial pressure after treatment, Δ mm Hg, 4 h” value is -7 mm Hg; the “Mean arterial pressure after treatment, Δ mm Hg, 7 h” value is on record as -3 mm Hg; the “Mean arterial pressure after treatment, Δ mm Hg, 24 h” value turned out to be 0 mm Hg. In addition, in assay [2] (3 mg/kg), the “Systolic arterial pressure after treatment, Δ mm Hg, 4 h” value is -22 mm Hg; the “Systolic arterial pressure after treatment, Δ mm Hg, 6 h” value is listed as -16 mm Hg; the “Systolic arterial pressure after treatment, Δ mm Hg, 24 h” value is listed as -8 mm Hg.

`CCOC(=O)C1=C(CCCCCCCN)NC(C)=C(C(=O)OC)C1c1ccccc1Cl` (racemic) [EXAMPLE 12, (4R,S)-2-(7-Aminoheptyl)-4-(2-chlorophenyl)-3-ethoxycarbonyl-5-methoxycarbonyl-6-methyl-1,4-dihydropyridine fumarate]: in the assay with rat aorta, the pIC50 is 7.60. In assay [1] (2.0 mg/kg), the “Mean arterial pressure after treatment, Δ mm Hg, 4 h” value was -22 mm Hg and the “Mean arterial pressure after treatment, Δ mm Hg, 7 h” value is reported as -32 mm Hg. In assay [2] (3 mg/kg), the “Systolic arterial pressure after treatment, Δ mm Hg, 4 h” value is -23 mm Hg; the “Systolic arterial pressure after treatment, Δ mm Hg, 6 h” value was -30 mm Hg; the “Systolic arterial pressure after treatment, Δ mm Hg, 24 h” value is recorded as -21 mm Hg.

Turning to `CCOC(=O)C1=C(COCCN)NC(C)=C(C(=O)OC)C1c1ccccc1Cl` (stereo not drawn) [AMLODIPINE, amlodipine, reference compound], in assay [1] (0.5 mg/kg), the “Mean arterial pressure after treatment, Δ mm Hg, 4 h” value is -28 mm Hg; the “Mean arterial pressure after treatment, Δ mm Hg, 7 h” value is listed as -20 mm Hg; the “Mean arterial pressure after treatment, Δ mm Hg, 24 h” value is listed as -10 mm Hg. Moreover, in assay [1] (1.0 mg/kg), the “Mean arterial pressure after treatment, Δ mm Hg, 4 h” value is listed as -45 mm Hg; the “Mean arterial pressure after treatment, Δ mm Hg, 7 h” value is given as -39 mm Hg; the “Mean arterial pressure after treatment, Δ mm Hg, 24 h” value is given as -29 mm Hg. Moreover, in assay [2] (3 mg/kg), the “Systolic arterial pressure after treatment, Δ mm Hg, 4 h” value is listed as -47 mm Hg; the “Systolic arterial pressure after treatment, Δ mm Hg, 6 h” value is -46 mm Hg; the “Systolic arterial pressure after treatment, Δ mm Hg, 24 h” value is recorded as -13 mm Hg. Moreover, in assay [3], the “Systolic arterial pressure Δ(mm Hg) 24 h after the last administration of the products, D1” value is listed as -9 mm Hg; the “Systolic arterial pressure Δ(mm Hg) 24 h after the last administration of the products, D2” value is on record as -8 mm Hg; the “Systolic arterial pressure Δ(mm Hg) 24 h after the last administration of the products, D3” value is -14 mm Hg; the “Systolic arterial pressure Δ(mm Hg) 24 h after the last administration of the products, D4” value was -14 mm Hg. Moreover, the “Systolic arterial pressure Δ(mm Hg) 24 h after the last administration of the products, D7” value in assay [3] was -9 mm Hg.

These data come from patent US4983740A, “Process for 1,4-dihydropyridine compounds” (Adir et Compagnie, priority 1986, dated 1991).
